In PubChem BioAssay (NCI):
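Briefly, cells in 96-well plates were exposed to five compound concentrations for 48 h, and endpoints were estimated by linear interpolation. The concentration for full growth arrest is given as TGI.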

How the values were obtained:
Experiment in all cases: NCI tumour cell line growth inhibition, 48 h
[1] = test system: SN12C renal
[2] = test system: RXF 393 renal
[3] = test system: HOP-92 NSCLC
[4] = test system: DU-145 prostate
[5] = test system: OVCAR-4 ovarian
[6] = test system: IGROV1 ovarian
[7] = test system: NCI-H23 lung
[8] = test system: MDA-N
[9] = test system: HL-60(TB) leukemia
[10] = test system: RPMI-8226 leukemia
[11] = test system: SK-MEL-28 melanoma
[12] = test system: TK-10 renal
[13] = test system: M14 melanoma
[14] = test system: HCT-15 colon
[15] = test system: UO-31 renal
[16] = test system: SK-MEL-2 melanoma
[17] = test system: OVCAR-3 ovarian
[18] = test system: HT29 colon
[19] = test system: OVCAR-5 ovarian
[20] = test system: SNB-75 CNS
[21] = test system: ACHN renal
[22] = test system: 786-0 renal
[23] = test system: K-562 leukemia
[24] = test system: SF-268 CNS
[25] = test system: UACC-62 melanoma
[26] = test system: MDA-MB-435
[27] = test system: PC-3 prostate
[28] = test system: NCI-H226 lung
[29] = test system: NCI/ADR-RES ovarian
[30] = test system: U251 CNS
[31] = test system: MALME-3M melanoma
[32] = test system: CAKI-1 renal
[33] = test system: A498 renal
[34] = test system: EKVX NSCLC
[35] = test system: SK-MEL-5 melanoma
[36] = test system: HOP-62 NSCLC
[37] = test system: HCT-116 colon
[38] = test system: MDA-MB-231 breast
[39] = test system: HCC-2998 colon
[40] = test system: NCI-H460 lung
[41] = test system: SR leukemia
[42] = test system: SF-539 CNS
[43] = test system: HS 578T breast
[44] = test system: UACC-257 melanoma
[45] = test system: KM12 colon
[46] = test system: T-47D breast
[47] = test system: MOLT-4 leukemia
[48] = test system: SF-295 CNS
[49] = test system: LOX IMVI melanoma
[50] = test system: MCF7 breast
[51] = test system: NCI-H522 lung
[52] = test system: SNB-19 CNS
[53] = test system: SW-620 colon
[54] = test system: A549 NSCLC
[55] = test system: SK-OV-3 ovarian
[56] = test system: OVCAR-8 ovarian
[57] = test system: COLO 205 colon
[58] = test system: BT-549 breast
[59] = test system: CCRF-CEM leukemia

Measured: TGI

COc1ccccc1N(CN1C(=O)CCC1C(=O)O)C(C)=O (stereo not drawn)
> 100 µM: [1] | [2] | [3] | [4] | [5] | [6] | [7] | [8] | [9] | [10] | [11] | [12] | [13] | [14] | [15] | [16] | [17] | [18] | [19] | [20] | [21] | [22] | [23] | [24] | [25] | [26] | [27] | [28] | [29] | [30] | [31] | [32] | [33] | [34] | [35] | [36] | [37] | [38] | [39] | [40] | [41] | [42] | [43] | [44] | [45] | [46] | [47] | [48] | [49] | [50] | [51] | [52] | [53] | [54] | [55] | [56] | [57]

O=C1N[C@H]2c3c(Cl)sc(Cl)c3[C@@H](O)[C@H]2O1
> 100 µM: [58] | [1] | [2] | [4] | [6] | [8] | [9] | [10] | [11] | [12] | [13] | [14] | [15] | [16] | [17] | [18] | [19] | [20] | [21] | [22] | [23] | [24] | [25] | [26] | [27] | [29] | [30] | [31] | [59] | [32] | [33] | [34] | [35] | [36] | [37] | [38] | [39] | [40] | [41] | [42] | [44] | [45] | [46] | [47] | [50] | [52] | [53] | [54] | [55] | [56] | [57]
